The values that follow come from patent US20250017910A1, “2-Thioxothiazolidine-4-One Derivatives And Their Uses” (Prosetta Biosciences, Inc., priority 2023, published 2025).

This assay concerns the target T1, alpha syn aggregates (Homo sapiens, UniProt P37840).
T1 construct: expressed in transfected cells; host or cells: NLF cells, Tet-on inducible expression
Kind of assay: Assay for Methamphetamine Addiction: alpha syn aggregates in NLF cells with or without amphetamine. To be noted: FIG. 1. In kind it is cell-based. The source says: FIG. 1 illustrates the average number of a syn aggregates per cell.
NLF cells were transfected with alpha synuclein behind a Tet-on promoter and induced to express alpha syn, resulting in the appearance of alpha syn aggregates. […] Aggregates were counted in ten randomly chosen fields and highest 3 in all conditions were quantified.

Regarding `CN1CCN(c2ccc(-c3ccc(/C=C4\SC(=S)N(CCc5ccccc5)C4=O)o3)cc2)CC1` [Compound 13], the “amphetamine mediated increase of alpha syn aggregates” value (0.5 mM amphetamine and 1 μM of compound) is listed as “eliminated the amphetamine mediated increase of aggregates”. The “number of alpha syn aggregates” value (treatment with 1 μM of compound) was “reduced the number of aggregates”. Turning to `CC(N)Cc1ccccc1` (stereo not drawn) [amphetamine, reference compound], under “treatment with 0.5 mM amphetamine”, the “number of alpha syn aggregates” value was “increased the number of aggregates”.
